Measured values as given in patent publication US20240226228A1, “ANTIMICROBIAL PEPTOID HAVING IMPROVED SELECTIVITY AND ANTIMICROBIAL COMPOSITION COMPRISING SAME” (priority 2021, published 2024).
≈ marks a conversion by molar mass, not a printed value. Like-named read-outs stand apart in the source and are kept apart here. Where a SMILES comes first, the peptide text is derived from it. [ ]: non-standard residue; d: D form. Gly(N(CH2)2(3-indolyl)) = O=C(O)CNCCc1c[nH]c2ccccc12; Gly(N-CH2CH2-imidazol-4-yl) = O=C(O)CNCCc1c[nH]cn1; Nspe = C[C@H](NCC(=O)O)c1ccccc1; Nlys = NCCCCNCC(=O)O

How the values were obtained:
E. coli ATCC25922 = details: for antimicrobial activity (in words): E. coli and S. aureus, compared to Peptoid 1, parent peptoid or TFA salt as stated
Summary of the method: (§1)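 Cation-adjusted MHB2 cultures (18 h, subcultured 4 h) adjusted to 2×10^5–5×10^5 CFU/mL in medium with 0.02% BSA and 0.001% acetic acid.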

S. aureus ATCC 25923 = test system: S. aureus ATCC 25923
Summary of the method: as §1

red blood cells = test: Hemolysis assay; format: cell-based, Sprague-Dawley mouse
Summary of the method: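 Peptoid is mixed with 10% (v/v) PBS-washed erythrocytes (male Sprague-Dawley […], 13 weeks) and held 1 h at 37 °C. Hemolysis is calculated from 540 nm absorbance of the supernatant, with PBS as 0% and Triton X-100 as 100%.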

Human lung cells (MRC-5) = test: in vitro; details: read-out: LC50 MRC-5; 24 hours incubation; concentration that causes 50% cell lethality
Protocol: (§2) Human lung cells (MRC-5) were purchased from the Korean Cell Line Bank, and human keratinocytes (HaCaT) were purchased from the AmorePacific R&D Center. All cells were grown in a Dulbecco's modified Eagle's medium containing 10% fetal bovine serum under conditions of 5% CO2 and 37° C. To confirm the effect of a peptoid on cell growth, 3-(4,5-dimethylthiazol-2-yl)-5-(3-carboxymethoxyphenyl)-2-(4-sulfophenyl)-2H-tetrazolium (MTS) cell assay was performed to determine cell viability. An aliquot (100 μL) of a batch including 1.3×10^4 MRC-5 cells/mL or 3×10^4 HaCaT cells/mL was dispensed into each well of a 96-well plate. The cells were grown at 37° C. in a 5% CO2 humid atmosphere and allowed to adhere for 24 hours. When the cells reached approximately 70% confluency, the medium was replaced with serial dilutions of the peptoid stock and incubated for 24 hours. 20 μL of a CellTiter 96 aqueous non-radioactive cell proliferation assay reagent (Promega, USA) including a tetrazolium compound was added to each well.
(§3) The contents in the plate were metabolized by incubating at 37° C. for 4 hours. An MTS-formazan product of viable cells was measured at 490 nm using a microplate reader, and cell viability (%) was calculated by Equation 2 below and compared with untreated cells.
(§4) Cell viability (%)=[A/(Acontrol)]×100 [Equation 2]
(§5) In Equation 2, A is the absorbance of a test well, and Acontrol is the average absorbance of a well containing untreated cells.
(§6) The term “nd” shown in Table 19 below is the abbreviation for not determined, and indicates a value that is too small or too large to be measured.

[1] = HPLC to confirm peptoid decomposition after counter ion substitution; format: physicochemical; details: HPLC at 220 nm; HCl and AcOH
Protocol: FIGS. 76 to 83 are the HPLC results for Peptoids 1, 10, 11, 14, 15, 29, 32 and 37 of the present inventive concept to confirm the decomposition of the peptoids after counter ion substitution using (a) HCl and (b) AcOH.
Referring to FIGS. […], HPLC was performed for Peptoids 1, 10, 11, 14, 15, 29, 32 and 37 of the present inventive concept. Since the chloride (HCl) is a stronger acid than TFA, it can decompose acid-vulnerable peptoid compounds.

[2] = test system: human keratinocytes (HaCaT); test: in vitro
Protocol: as §2, §3, §4, §5, §6

[3] = Table 18, TFA salt vs counter ion-substituted (HCl, AcOH) peptoids
[4] = Table 18, TFA salt vs counter ion-substituted peptoids
[5] = Tables 11-13, 24 hours at 37° C., maximum concentration 25 μM

MIC E. coli ATCC25922 (E. coli ATCC25922; ATCC25922) [µM] | MIC S. aureus ATCC 25923 (S. aureus ATCC 25923; ATCC 25923) [µM] | Structure (SMILES) | MIC E. coli ATCC25922 (E. coli ATCC25922; [3]) [µM] | MIC S. aureus ATCC 25923 (S. aureus ATCC 25923; [3]) [µM] | antimicrobial activity (in words) (E. coli ATCC25922) | MIC E. coli ATCC25922 (E. coli ATCC25922; [5]) [µM] | MIC S. aureus ATCC 25923 (S. aureus ATCC 25923; [5]) [µM] | peptoid decomposition after counter ion substitution (in words) [1] | Hmax (100 μM) (red blood cells) | HD10 (red blood cells) | HD50 (red blood cells) | other results
– | – | C[C@@H](c1ccccc1)N(CC(N)=O)C(=O)CN(C(=O)CN(CCCCN)C(=O)CN(C(=O)CN(C(=O)CN(CCCCN)C(=O)CN(C(=O)CN(C(=O)CN(CCCCN)C(=O)CN(C(=O)CN(C(=O)CNCCCCN)[C@@H](C)c1ccccc1)[C@@H](C)c1ccccc1)[C@@H](C)c1ccccc1)[C@@H](C)c1ccccc1)[C@@H](C)c1ccccc1)[C@@H](C)c1ccccc1)[C@@H](C)c1ccccc1 [Peptoid 1-1, reference compound] (H-[Nlys][Nspe][Nspe][Nlys][Nspe][Nspe][Nlys][Nspe][Nspe][Nlys][Nspe][Nspe]-NH2) | 6.3 | 1.6 | – | – | – | – | – | – | – | HC10 (red blood cells; [4]): 27.6 µM; HC50 (red blood cells; [4]): 83.3 µM; Hmax (100 μM) (red blood cells; [4]): 61.5 ± 0.9%; CC50 (Human lung cells (MRC-5)): 11.8 µM
– | – | C[C@@H](c1ccccc1)N(CC(N)=O)C(=O)CN(C(=O)CN(CCCCN)C(=O)CN(C(=O)CN(C(=O)CN(CCCCN)C(=O)CN(C(=O)CN(C(=O)CN(CCCCN)C(=O)CN(C(=O)CN(C(=O)CNCCCCN)[C@@H](C)c1ccccc1)[C@@H](C)c1ccccc1)[C@@H](C)c1ccccc1)[C@@H](C)c1ccccc1)[C@@H](C)c1ccccc1)[C@@H](C)c1ccccc1)[C@@H](C)c1ccccc1 [Peptoid 1-2, reference compound] (H-[Nlys][Nspe][Nspe][Nlys][Nspe][Nspe][Nlys][Nspe][Nspe][Nlys][Nspe][Nspe]-NH2) | 12.5 | 3.1 | – | – | – | – | – | – | – | HC10 (red blood cells; [4]): 25.0 µM; HC50 (red blood cells; [4]): 78.6 µM; Hmax (100 μM) (red blood cells; [4]): 58.2 ± 1.7%; CC50 (Human lung cells (MRC-5)): 8.6 µM
– | – | C[C@@H](c1ccccc1)N(CC(N)=O)C(=O)CN(CCCCN)C(=O)CN(CCCCN)C(=O)CN(C(=O)CN(C(=O)CN(CCCCN)C(=O)CN(C(=O)CN(C(=O)CN(CCCCN)C(=O)CN(CCc1c[nH]c2ccccc12)C(=O)CN(CCc1c[nH]c2ccccc12)C(=O)CNCCCCN)[C@@H](C)c1ccccc1)[C@@H](C)c1ccccc1)[C@@H](C)c1ccccc1)[C@@H](C)c1ccccc1 [Peptoid 32-1] | 6.3 | 6.3 | – | – | – | – | 8.7 ± 0.6% | – | – | HC10 (red blood cells): >100/>100 μM; HC50 (red blood cells): >100/>100 μM; LC50 / animal cell toxicity, HaCaT (in words) [2]: LC50 values of the peptoids increase
6.3 (≈ 11.9 µg/mL) | 6.3 (≈ 11.9 µg/mL) | C[C@@H](c1ccccc1)N(CC(=O)N(CCCCN)CC(=O)N(CCc1c[nH]c2ccccc12)CC(=O)N(CCc1c[nH]c2ccccc12)CC(N)=O)C(=O)CN(CCCCN)C(=O)CN(CCc1c[nH]cn1)C(=O)CN(C(=O)CN(C(=O)CN(CCCCN)C(=O)CN(C(=O)CN(C(=O)CNCCCCN)[C@@H](C)c1ccccc1)[C@@H](C)c1ccccc1)[C@@H](C)c1ccccc1)[C@@H](C)c1ccccc1 [Peptoid 79] (H-[Nlys][Nspe][Nspe][Nlys][Nspe][Nspe][Gly(N-CH2CH2-imidazol-4-yl)][Nlys][Nspe][Nlys][Gly(N(CH2)2(3-indolyl))][Gly(N(CH2)2(3-indolyl))]-NH2) | – | – | – | – | – | – | 8.5 ± 0.6 | >100.0/>100.0 | >100.0/>100.0 | –
12.5 (≈ 23.6 µg/mL) | 6.3 (≈ 11.9 µg/mL) | C[C@@H](c1ccccc1)N(CC(=O)N(CCCCN)CC(=O)N(CCc1c[nH]c2ccccc12)CC(=O)N(CCc1c[nH]c2ccccc12)CC(N)=O)C(=O)CN(CCCCN)C(=O)CN(CCCCN)C(=O)CN(C(=O)CN(C(=O)CN(CCc1c[nH]cn1)C(=O)CN(C(=O)CN(C(=O)CNCCCCN)[C@@H](C)c1ccccc1)[C@@H](C)c1ccccc1)[C@@H](C)c1ccccc1)[C@@H](C)c1ccccc1 [Peptoid 80] (H-[Nlys][Nspe][Nspe][Gly(N-CH2CH2-imidazol-4-yl)][Nspe][Nspe][Nlys][Nlys][Nspe][Nlys][Gly(N(CH2)2(3-indolyl))][Gly(N(CH2)2(3-indolyl))]-NH2) | – | – | – | – | – | – | 4.0 ± 0.5 | >100.0/>100.0 | >100.0/>100.0 | –
6.3 (≈ 11.9 µg/mL) | 6.3 (≈ 11.9 µg/mL) | C[C@@H](c1ccccc1)N(CC(=O)N(CCCCN)CC(=O)N(CCc1c[nH]c2ccccc12)CC(=O)N(CCc1c[nH]c2ccccc12)CC(N)=O)C(=O)CN(CCCCN)C(=O)CN(CCCCN)C(=O)CN(C(=O)CN(C(=O)CN(CCCCN)C(=O)CN(C(=O)CN(C(=O)CNCCc1c[nH]cn1)[C@@H](C)c1ccccc1)[C@@H](C)c1ccccc1)[C@@H](C)c1ccccc1)[C@@H](C)c1ccccc1 [Peptoid 81] (H-[Gly(N-CH2CH2-imidazol-4-yl)][Nspe][Nspe][Nlys][Nspe][Nspe][Nlys][Nlys][Nspe][Nlys][Gly(N(CH2)2(3-indolyl))][Gly(N(CH2)2(3-indolyl))]-NH2) | – | – | – | – | – | – | 5.7 ± 0.1 | >100.0/>100.0 | >100.0/>100.0 | –

Structure (SMILES) | MIC E. coli ATCC25922 (E. coli ATCC25922; ATCC25922) [µM] | MIC S. aureus ATCC 25923 (S. aureus ATCC 25923; ATCC 25923) [µM] | MIC E. coli ATCC25922 (E. coli ATCC25922; [3]) [µM] | MIC S. aureus ATCC 25923 (S. aureus ATCC 25923; [3]) [µM] | antimicrobial activity (in words) (E. coli ATCC25922) | MIC E. coli ATCC25922 (E. coli ATCC25922; [5]) [µM] | MIC S. aureus ATCC 25923 (S. aureus ATCC 25923; [5]) [µM] | peptoid decomposition after counter ion substitution (in words) [1] | Hmax (100 μM) (red blood cells) | HD10 (red blood cells) | HD50 (red blood cells) | other results
C[C@@H](c1ccccc1)N(CC(N)=O)C(=O)CN(C(=O)CN(CCCCN)C(=O)CN(C(=O)CN(C(=O)CN(CCCCN)C(=O)CN(C(=O)CN(C(=O)CN(CCCCN)C(=O)CN(CCc1c[nH]c2ccccc12)C(=O)CN(C(=O)CNCCCCN)[C@@H](C)c1ccccc1)[C@@H](C)c1ccccc1)[C@@H](C)c1ccccc1)[C@@H](C)c1ccccc1)[C@@H](C)c1ccccc1)[C@@H](C)c1ccccc1 [Peptoid 10, H-NLys-Nspe-NhTrp-NLys-Nspe-Nspe-NLys-Nspe-Nspe-NLys-Nspe-Nspe-NH2] | 3.1 (≈ 5.76 µg/mL) | – | – | 0.8 | antimicrobial activity was reduced | 3.1 (≈ 5.76 µg/mL) | 1.6 (≈ 2.97 µg/mL) | almost no peptoid decomposition occurred | – | – | – | –
C[C@@H](c1ccccc1)N(CC(N)=O)C(=O)CN(C(=O)CN(CCCCN)C(=O)CN(C(=O)CN(CCc1c[nH]c2ccccc12)C(=O)CN(CCCCN)C(=O)CN(CCc1c[nH]c2ccccc12)C(=O)CN(C(=O)CN(CCCCN)C(=O)CN(C(=O)CN(C(=O)CNCCCCN)[C@@H](C)c1ccccc1)[C@@H](C)c1ccccc1)[C@@H](C)c1ccccc1)[C@@H](C)c1ccccc1)[C@@H](C)c1ccccc1 [Peptoid 15, H-NLys-Nspe-Nspe-NLys-Nspe-NhTrp-NLys-NhTrp-Nspe-NLys-Nspe-Nspe-NH2] | – | 1.6 (≈ 3.04 µg/mL) | 3.1 | – | antimicrobial activity was reduced | 6.3 (≈ 12 µg/mL) | 1.6 (≈ 3.04 µg/mL) | almost no peptoid decomposition occurred | – | – | – | –
C[C@@H](c1ccccc1)N(CC(=O)N(CCCCN)CC(=O)N(CC(=O)N(CC(=O)N(CCCCN)CC(=O)N(CC(=O)N(CC(=O)N(CCCCN)CC(N)=O)[C@@H](C)c1ccccc1)[C@@H](C)c1ccccc1)[C@@H](C)c1ccccc1)[C@@H](C)c1ccccc1)C(=O)CN(C(=O)CN(CCCCN)C(=O)CN(CCc1c[nH]c2ccccc12)C(=O)CNCCc1c[nH]c2ccccc12)[C@@H](C)c1ccccc1 [Peptoid 37, H-NhTrp-NhTrp-NLys-Nspe-Nspe-NLys-Nspe-Nspe-NLys-Nspe-Nspe-NLys-NH2] (H-[Gly(N(CH2)2(3-indolyl))][Gly(N(CH2)2(3-indolyl))][Nlys][Nspe][Nspe][Nlys][Nspe][Nspe][Nlys][Nspe][Nspe][Nlys]-NH2) | 3.1 (≈ 5.88 µg/mL) | – | – | 1.6 | antimicrobial activity was reduced | 3.1 (≈ 5.88 µg/mL) | 1.6 (≈ 3.04 µg/mL) | almost no peptoid decomposition occurred | – | – | – | –
